Experimental findings from patent US20040122059A1, “PPAR-gamma ligands in the treatment of asthma and allergies” (The Penn State Research Foundation, priority 2002, published 2004) are described below.

“And” between values parts separate entries of the source, which are not always exact repeats. Equal entries are not always repeated.

Assay [1] deals with murine model of allergic asthma. Briefly: OVA-induced allergic asthma, lung histopathology (asthma severity). The settings on record: for Asthma severity (total histopathology score 0-6): 0.12 μM Ciglitazone/daily per mouse in diet from one week before induction. The assay is classed as in vivo, Balb/c mice. On the procedure: Asthma was induced in the mice as described (Zhang et al. 1999. Immunity 11: 473). Briefly mice were injected intraperitoneally with 10 µg of OVA in Alum twice on day 1 and 5 of asthma induction (primed). On day 10, mice were challenged intranasally with OVA in sterile saline, every day for three days (40 μg total). In an alternative protocol the mice were only challenged intranasally (unprimed) with OVA for three consecutive days. Asthma induction was effective with or without the use of immunization (Alum and OVA injections). Two weeks after asthma induction (the day after the last intranasal challenge) the mice were sacrificed. Two different Ciglitazone treatments were done. […] The mice continued on these diets for the remainder of the study. […] Asthma severity. The lungs were fixed in formalin and sent to the Penn State University Animal Diagnostic Laboratories for sectioning and staining with hematoxylin and eosin. The sections were scored blindly on a scale of 0 to 3 for inflammation and 0-3 for epithelial thickening. […] The inflammation and epithelial scores for each section were added together for a total histopathology score ranging from 0-6. The results are presented as means±SEMs. […] In this model, mice are initially exposed to OVA in complex with Alum intraperitoneally, then challenged intranasally with OVA. This protocol usually leads to increased inflammatory cell infiltration into the lung, thickening of the epithelial cells lining the bronchioles of the lung, mucous secretion and in most cases, increased presence of circulating serum IgE. These symptoms highlight the predominant TH2 nature of this disease. Mice (Balb/c) were primed and with OVA intranasally as described in the Materials and Methods section. Twenty-four hours after the final intranasal challenge, mice were analyzed for immunological symptoms of allergic asthma. […]

The next assay deals with splenocytes. Briefly: Antigen specific cytokine production and proliferation of splenocytes from treated mice restimulated in vitro with OVA. The assay is classed as in vivo, Balb/c mice. The settings on record: for Proliferation: [3H]thymidine. The procedure: Measurement of lymphocyte proliferation and cytokine production. Th cells were cultured in 96 well plates for proliferation assays and 24 well plates for supernatants (Corning Costar, Corning, N.Y.). After 72 h, supernatants were collected for ELISAs. For proliferation assays, 0.4 μCi of [3H]thymidine (ICN, Costa Mesa, Calif.) was added to each well and the cells were incubated for an additional 18 h. Radioactive thymidine incorporation was determined by liquid scintillation using a Beta plate Counter. Mouse IL-2, IL-4, IL-5 and IFN-γ production were detected using ELISA kits from Pharmingen, following the instructions provided. […] Asthma was induced in the mice as described (Zhang et al. 1999. Immunity 11: 473). Briefly mice were injected intraperitoneally with 10 µg of OVA in Alum twice on day 1 and 5 of asthma induction (primed). On day 10, mice were challenged intranasally with OVA in sterile saline, every day for three days (40 μg total). In an alternative protocol the mice were only challenged intranasally (unprimed) with OVA for three consecutive days. Asthma induction was effective with or without the use of immunization (Alum and OVA injections). Two weeks after asthma induction (the day after the last intranasal challenge) the mice were sacrificed. Two different Ciglitazone treatments were done. […] The mice continued on these diets for the remainder of the study.

The subject of another assay is TH1 cells. The experiment in a line: Cytokine production by TH1-primed DO11.10 CD4+ T cells stimulated with PMA and ionomycin. The assay is classed as cell-based, mouse. The settings on record: PGJ2 10 mM, CLA 5 mM, 72 h supernatant ELISA. The procedure:
(§1) TH cell cultures. Lymph node and spleen cells from the DO11.10 TCR transgenic mice were removed and CD4 positive cells were isolated using the CD4 Immunocolumns and the manufacturer's instructions (Cedarlane labs, Homby, Canada). CD4 positive T cells (95-98% pure) were cultured in vitro with OVA and mitomycin C treated splenocytes from congenic mice. The cultures were incubated under neutral conditions (TH0 priming) or with rIL-4 and anti-IFN-γ antibodies (TH2 priming), or with rIL-12 (TH1 priming). After 4 days (4d) in culture the cells were collected and dead splenocytes were removed by centrifugation over histopaque. […] T cells were collected and recultured with rIL-2 (Pharmingen) for 3 d to expand the T cells. Cells were then collected, washed and stimulated for proliferation and cytokine synthesis with phorbal myristiyl acetate (PMA, Sigma, St. Louis, Mo.) and ionomycin (Sigma) in the presence of PJG2, conjugated linoleic acid (CLA) or control treated.
(§2) Measurement of lymphocyte proliferation and cytokine production. Th cells were cultured in 96 well plates for proliferation assays and 24 well plates for supernatants (Corning Costar, Corning, N.Y.). After 72 h, supernatants were collected for ELISAs. For proliferation assays, 0.4 μCi of [3H]thymidine (ICN, Costa Mesa, Calif.) was added to each well and the cells were incubated for an additional 18 h. Radioactive thymidine incorporation was determined by liquid scintillation using a Beta plate Counter. Mouse IL-2, IL-4, IL-5 and IFN-γ production were detected using ELISA kits from Pharmingen, following the instructions provided. The ELISA detection limits were 25 pg/ml IL-2, 62 pg/ml IL-4, 312 pg/ml IL-5, and 1000 pg/ml IFN-γ.
(§3) The present inventors decided to test if T cells are direct targets of PPAR-γ ligands. Purified CD4+T cells carrying the transgenic TcR for OVA (DO11.10) were cultured in vitro with OVA and mitomycin C treated splenocytes under neutral conditions (THO priming) or with rIL-4 and anti-IFN-γ antibodies (TH2 priming), or with rIL-12 (TH1 priming). Following 4 days of initial culture, cells were isolated and expanded in rIL-2. These expanded antigen specific T cells were stimulated in the presence or absence of PJG2, a PPAR-γ ligand and cells analyzed for proliferation and cytokine synthesis (Table 1). As previously characterized, cells initially stimulated under TH1 conditions (TH1 cells) secreted more IFN-γ and IL-2 and less IL-4 and IL-5 than those initially stimulated under TH2 conditions (TH2 cells). The TH1 and TH2 cells were greater than 95% CD4+and carried the transgenic TcR (data not shown). The PPAR-γ ligand PGJ2 regulated cytokine production in both TH1 and TH2 cells. PGJ2 inhibited IL-4 and IL-5 production in TH1 cells and inhibited IFN-γ, IL-2, and IL-5 production in TH2 cells (Table 1).
On the technique in general: ELISA stands for enzyme-linked immunosorbent assay.

Another assay concerns TH2 cells. The experiment in a line: Cytokine production by TH2-primed DO11.10 CD4+ T cells stimulated with PMA and ionomycin. To be noted: PGJ2 10 mM, CLA 5 mM, 72 h supernatant ELISA. The assay is classed as cell-based, mouse. On the procedure:
as §1, §2, §3

Where [2] appears, read: Primed mice, late Ciglitazone treatment.

Take `CC1(COc2ccc(CC3SC(=O)NC3=O)cc2)CCCCC1` (stereo not shown) [Ciglitazone]: the “Asthma severity (total histopathology score 0-6)” value in assay [1] (PRIMED mice (OVA/Alum i.p., then intranasal OVA)) was 1+/−0.3 and 1.0 ± 0.3. The “Asthma severity (total histopathology score 0-6)” value in assay [1] (UNPRIMED mice, intranasal OVA challenge only) was 0.8+/−0.2 and 0.8±0.2. In addition, in assay [1] (representative lung, Ciglitazone treated), the “Histopathology score of representative lung section (FIG. 1B)” value is reported as 1. Also, in the assay on splenocytes (Primed mice fed Ciglitazone), the IL-5 turned out to be 903 ± 87 pg/mL and the Proliferation stood at 10649 ± 492 CPM. In the assay on splenocytes (setting [2]), the IFN-γ was determined as 4063 ± 170 pg/mL, the IL-4 was found to be 395 ± 92 pg/mL, the IL-5 came out at 875 ± 79 pg/mL and the Proliferation is 10579 ± 1477 CPM.

Take `CCCCC/C=C/C=C1/C(=O)C=C[C@@H]1C/C=C\CCCC(=O)O` [PGJ2, 15-deoxy-Delta(12,14)-prostaglandin J(2)]: in the assay with TH1 cells, the IFN-γ was 14370 ± 250 pg/mL and the IL-2 turned out to be 512 ± 1 pg/mL. The same compound showed an IL-4 in the assay with TH2 cells of 1861 ± 28 pg/mL.

In the assay on TH1 cells, conjugated linoleic acid [CLA] showed an IFN-γ of 14689 ± 370 pg/mL, an IL-2 of 522 ± 20 pg/mL and an IL-5 of 150 ± 6 pg/mL. Further, in the assay on TH2 cells, the IFN-γ came out at 5592 ± 306 pg/mL, the IL-2 was 224 ± 4 pg/mL, the IL-4 was found to be 1863 ± 62 pg/mL and the IL-5 was determined as 240 ± 52 pg/mL.
